The results in this text go back to EP1401829B1, “NOVEL HETEROCYCLIC ANTIBACTERIAL COMPOUNDS” (Microbiotix, Inc., priority 2001, dated 2002).

Converted amounts (≈) assume the structure as drawn. Like-named read-outs stand apart in the source and are kept apart here.

The target of one experiment is T1, B. subtilis Pol IIIC (Bacillus subtilis, UniProt P13267).
T1 construct: made in house
Put plainly: Polymerase IIIC (Pol IIIC) assay, determination of Ki values. As to conditions: Ki (µM) Pol IIIC, assay in absence of dGTP or dATP; Ki is the concentration that reduces control polymerase IIIC activity by 50 percent. The experiment is classed as biochemical. A digest of the protocol: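 Isolated B. subtilis Pol IIIC (0.025–0.06 units) run 10 min at 30°C in 30 mM Tris pH 7.5, 10 mM Mg acetate, 4 mM DTT, 20% glycerol. Substrates were 0.4 mg/ml activated calf thymus DNA, 25 µM dNTPs and 10 µM [3H]dTTP, with dGTP or dATP omitted per compound structure.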

For a further experiment, the system named is B. subtilis. The experiment is described as follows: Minimal Inhibitory Concentration (MIC) determination, 96 well plates. It is filed as cell-based, Bacillus subtilis. As to conditions: Bacillus subtilis; HBI medium, 16 to 18 hours at 37°C; read-out: MIC (µg/ml) B. subtilis. A digest of the protocol:
(§1)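 Broth growth in Heart-Brain Infusion medium, seeded at about 1x10^5 CFU/ml, 16 to 18 hours at 37°C. Growth read at OD 600 nm as percent of untreated control; five concentrations per drug, five data points each, MIC reported in µg/ml.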

The subject of the next experiment is S. aureus. The description is as above. The experiment is classed as cell-based, Staphylococcus aureus. The settings on record: Staphylococcus aureus, read-out: MIC (µg/ml) S. aureus. The essentials: (§2)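 Cultures seeded at approximately 1x10^5 CFU/ml in Heart-Brain Infusion medium were exposed to five compound concentrations, five data points each, for 16 to 18 hours at 37°C. Growth at OD 600 nm was expressed as percent of control, and MIC values are given in µg/ml.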

The subject of another experiment is E. fecalis. Described as above. It is filed as cell-based, Enterococcus fecalis. As to conditions: Enterococcus; HBI medium, 16 to 18 hours at 37°C; read-out: MIC (µg/ml) E. fecalis. The essentials:
as §1

The subject of a further experiment is E. coli. The experiment is described as above. It is filed as cell-based, Escherichia coli. The settings on record: Escherichia coli; HBI medium, 16 to 18 hours at 37°C; read-out: MIC (µg/ml) E. coli. A digest of the protocol:
as §2

The mark [1] stands for this setting: HBI medium, 16 to 18 hours at 37°C.

T1 sequence (P13267 whole entry): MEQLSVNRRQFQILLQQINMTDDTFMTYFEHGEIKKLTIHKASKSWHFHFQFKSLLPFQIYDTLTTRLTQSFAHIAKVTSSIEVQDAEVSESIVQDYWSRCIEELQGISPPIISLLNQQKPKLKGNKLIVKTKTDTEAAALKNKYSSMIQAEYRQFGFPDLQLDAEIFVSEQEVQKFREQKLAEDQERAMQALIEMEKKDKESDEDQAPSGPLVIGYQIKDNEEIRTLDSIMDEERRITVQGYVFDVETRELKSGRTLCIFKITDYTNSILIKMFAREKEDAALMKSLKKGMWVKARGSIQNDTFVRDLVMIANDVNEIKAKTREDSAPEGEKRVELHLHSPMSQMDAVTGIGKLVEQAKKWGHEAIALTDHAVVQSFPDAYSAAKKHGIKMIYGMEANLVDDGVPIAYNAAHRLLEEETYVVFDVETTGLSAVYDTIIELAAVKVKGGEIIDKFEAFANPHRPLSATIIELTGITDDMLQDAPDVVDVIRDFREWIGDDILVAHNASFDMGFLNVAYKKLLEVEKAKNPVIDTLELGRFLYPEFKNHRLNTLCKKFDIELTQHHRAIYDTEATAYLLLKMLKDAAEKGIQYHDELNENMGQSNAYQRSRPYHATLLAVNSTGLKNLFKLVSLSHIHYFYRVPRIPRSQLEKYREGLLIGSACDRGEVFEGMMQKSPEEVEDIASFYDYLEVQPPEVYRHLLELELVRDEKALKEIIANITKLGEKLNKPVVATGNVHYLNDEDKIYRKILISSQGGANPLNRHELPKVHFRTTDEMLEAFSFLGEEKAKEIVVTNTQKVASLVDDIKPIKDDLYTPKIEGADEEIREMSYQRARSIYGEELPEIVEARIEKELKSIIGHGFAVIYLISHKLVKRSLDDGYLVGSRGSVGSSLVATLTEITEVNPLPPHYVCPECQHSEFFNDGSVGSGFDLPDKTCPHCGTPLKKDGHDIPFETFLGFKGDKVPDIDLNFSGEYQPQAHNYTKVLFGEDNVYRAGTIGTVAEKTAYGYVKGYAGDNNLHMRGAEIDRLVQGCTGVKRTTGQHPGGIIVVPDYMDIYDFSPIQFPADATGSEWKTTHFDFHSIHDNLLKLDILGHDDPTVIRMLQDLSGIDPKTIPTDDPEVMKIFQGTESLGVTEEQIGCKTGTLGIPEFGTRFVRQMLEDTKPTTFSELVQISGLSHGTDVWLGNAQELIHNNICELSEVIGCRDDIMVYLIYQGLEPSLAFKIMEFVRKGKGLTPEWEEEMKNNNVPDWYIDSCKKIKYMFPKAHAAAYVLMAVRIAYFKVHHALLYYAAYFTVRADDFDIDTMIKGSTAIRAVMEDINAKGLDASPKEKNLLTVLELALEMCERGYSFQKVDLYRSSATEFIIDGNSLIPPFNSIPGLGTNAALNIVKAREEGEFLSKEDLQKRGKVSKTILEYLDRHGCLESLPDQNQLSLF

Compound `CCc1cc(Nc2cc(=O)n(CCCCN3CCN(c4cc5c(cc4F)c(=O)c(C(=O)O)cn5C4CC4)CC3)c(=O)[nH]2)ccc1C` [Compound 2, 3-{4-[1-(1-cyclopropyl-3-carboxy-4-oxo-6-fluoro-7-quinolyl)-4-piperazinyl]butyl}-6-(3-ethyl-4-methylanilino)uracil] came in with a Ki at B. subtilis Pol IIIC of 0.024 µM. Moreover, the MIC with B. subtilis came to 0.156 µg/mL (≈ 0.247 µM); with S. aureus (setting [1]) it was 0.625 µg/mL (≈ 0.991 µM); in the experiment with S. aureus (table of MSSA/MRSA strains), 0.625 µg/mL (≈ 0.991 µM); with E. fecalis, 1.25 µg/mL (≈ 1.98 µM); in the experiment on E. coli, 2.5 µg/mL (≈ 3.96 µM).

`CCc1cc(Nc2cc(=O)n(CCCCN3CCN(c4cc5c(cc4F)c(=O)c(C(=O)O)cn5C4CC4)CC3)c(=O)[nH]2)ccc1C.CS(=O)(=O)O` [Compound 10, 3-{4-[1-(1-cyclopropyl-3-carboxy-4-oxo-6-fluoro-7-quinolyl)-4-piperazinyl]butyl}-6-(3-ethyl-4-methylanilino)uracil methanesulfonate] had a Ki at B. subtilis Pol IIIC of 0.018 µM. The MIC with B. subtilis worked out at 0.313 µg/mL; in the experiment on S. aureus (setting [1]) it was 0.625 µg/mL; with S. aureus (table of MSSA/MRSA strains) it was 0.625 µg/mL; in the experiment on E. fecalis, 1.25 µg/mL; with E. coli, 5 µg/mL.

Compound `CCc1cc(Nc2cc(=O)n(CCCCN3CCN(c4c(F)cc5c(=O)c(C(=O)O)cn(C6CC6)c5c4F)CC3C)c(=O)[nH]2)ccc1C` (stereo not drawn) [Compound 70, 3-{4-[1-(1-cyclopropyl-3-carboxy-4-oxo-6,8-difluoro-7-quinolyl)-3-methyl-4-piperazinyl]butyl}-6-(3-ethyl-4-methylanilino)uracil] displayed an inhibition constant (Ki) at B. subtilis Pol IIIC of 0.019 µM. The MIC in the experiment with B. subtilis was 0.156 µg/mL (≈ 0.235 µM); in the experiment on S. aureus (setting [1]), 0.313 µg/mL (≈ 0.472 µM); in the experiment on S. aureus (table of MSSA/MRSA strains), 0.39 µg/mL (≈ 0.588 µM); in the experiment on E. fecalis it was 0.95 µg/mL (≈ 1.43 µM); with E. coli it was over 80 µg/mL.
